Active and inactive are the calls of the source. The rule behind the calls is not given here.
Tests used:
HUVEC [1] = assay: Induction of apoptosis in HUVEC at 10 to 20 uM after 48 hrs by fluorescence assay; format: functional, cell-based; conditions: Homo sapiens
HUVEC [2] = assay: Antiangiogenic activity in HUVEC assessed as complete inhibition of tube formation at 40 uM; format: functional, cell-based; conditions: Homo sapiens
Tubulin (Homo sapiens) = Tubulin (Homo sapiens) (UniProt P68371+Q9H4B7+P0DPH7+P68366+Q13509+Q71U36+P04350+Q3ZCM7+P07437+P68363+Q9BQE3+Q6PEY2+Q13885+Q9BVA1+Q9BUF5); assay: Inhibition of tubulin polymerization in HUVEC at 20 uM by fluorescence staining; format: cell-based
HUVEC [3] = assay: Induction of cell cycle arrest in HUVEC assessed as accumulation at G2/M phase at 20 uM after 24 hrs by flow cytometry; format: functional, Homo sapiens
HUVEC [4] = assay: Induction of cell cycle arrest in HUVEC assessed as accumulation at S phase at 20 uM after 24 hrs by flow cytometry; format: functional, Homo sapiens
[5] = molecular target: Somatostatin receptor type 4 (Homo sapiens, UniProt P31391); assay: Binding affinity to human SSTR4
HUVEC [6] = assay: Cytotoxicity against HUVEC after 72 hrs by MTT assay; format: cell-based; conditions: Homo sapiens
HUVEC [7] = assay: Inhibition of HUVEC migration at 20 uM by scratch-wound healing assay; format: functional, cell-based; conditions: Homo sapiens
HUVEC [8] = assay: Induction of apoptosis in HUVEC assessed as change in mitochondrial membrane potential at 10 to 20 uM after 48 hrs by JC1 staining; format: functional, cell-based; conditions: Homo sapiens
HUVEC [9] = assay: Antiangiogenic activity in HUVEC assessed as partial inhibition of tube formation at 20 uM; format: functional, cell-based; conditions: Homo sapiens
[10] = molecular target: Somatostatin receptor type 5 (Homo sapiens, UniProt P35346); assay: Binding affinity to human SSTR5
HUVEC [11] = assay: Induction of cell cycle arrest in HUVEC assessed as accumulation at G1 phase at 20 uM after 24 hrs by flow cytometry; format: functional, Homo sapiens

Somatostatin receptor type 4, sequence (P31391 whole entry): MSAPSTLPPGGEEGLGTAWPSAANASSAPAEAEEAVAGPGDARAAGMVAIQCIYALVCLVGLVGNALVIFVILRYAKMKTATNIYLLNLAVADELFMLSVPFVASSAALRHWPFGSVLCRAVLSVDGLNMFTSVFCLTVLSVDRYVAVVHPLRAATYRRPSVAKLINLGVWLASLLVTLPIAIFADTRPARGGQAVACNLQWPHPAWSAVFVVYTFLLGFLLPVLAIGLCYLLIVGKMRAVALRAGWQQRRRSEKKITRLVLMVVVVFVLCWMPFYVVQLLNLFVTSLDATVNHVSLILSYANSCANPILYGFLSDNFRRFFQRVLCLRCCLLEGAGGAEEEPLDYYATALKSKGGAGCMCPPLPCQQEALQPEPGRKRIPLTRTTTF
Somatostatin receptor type 5, sequence (P35346 whole entry): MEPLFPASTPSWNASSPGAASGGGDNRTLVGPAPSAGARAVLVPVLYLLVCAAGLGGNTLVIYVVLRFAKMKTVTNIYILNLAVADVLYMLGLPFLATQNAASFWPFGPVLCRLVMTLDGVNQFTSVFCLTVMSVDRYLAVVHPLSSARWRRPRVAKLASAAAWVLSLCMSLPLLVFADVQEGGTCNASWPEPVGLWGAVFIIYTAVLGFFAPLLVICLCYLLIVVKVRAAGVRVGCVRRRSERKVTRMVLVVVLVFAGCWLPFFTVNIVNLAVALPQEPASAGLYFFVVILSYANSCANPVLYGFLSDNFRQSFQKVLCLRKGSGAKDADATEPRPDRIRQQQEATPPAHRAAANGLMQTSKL

## NCCCCCOC[C@@H]1[C@@H](OCc2ccccc2)[C@H](OCc2ccccc2)[C@@H](OCc2ccccc2)CN1CCc1c[nH]c2ccccc12
HUVEC [1]
  Activity: Active
HUVEC [2]
  inhibition: Active
Tubulin (Homo sapiens)
  inhibition: Active
HUVEC [3]
  Activity: 16.27%
HUVEC [4]
  Activity: 13.81%
[5]
  Ki: 4.4 µM
HUVEC [6]
  IC50: 12.6 µM
HUVEC [7]
  inhibition: Active
HUVEC [8]
  Activity: Active
HUVEC [9]
  inhibition: Active
[10]
  Ki: 5 µM
HUVEC [11]
  Activity: 70.39%
